# Values of other authors as cited in US20230056424A1, “PREVENTION OF THE CONVERSION OF PHARMACEUTICAL AGENTS INTO TOXIC N-NITROSAMINE COMPOUNDS” (ALFRED E. TIEFENBACHER (GMBH & CO. KG), priority 2021, published 2023).
# Conditions: standards established by the health authorities
structure (smiles),measurement,value
O=NN1C[C@H]2C[C@@H](C1)c1cc3nccnc3cc12 [N-nitroso-varenicline],maximum allowed daily intake,37 ng/day
